Measured values taken from paper PMC9455983 (International Journal of Molecular Sciences, 2022).

Tested on: C57BL/6J mice
Assay: 55 °C warm-water tail-withdrawal assay (antinociception)
Format: in vivo, mouse
Procedure: For intracerebroventricular (i.c.v.) administration, the 1968-series compounds were dissolved in dimethyl sulfoxide (DMSO), followed by the addition of sterile saline (0.9%) so that the final vehicle was 50% DMSO and 50% saline, and the i.c.v. injections were performed as described previously. For per os (p.o.) administration, 1968-4 and 1968-22 were administered in 10% Ethanol/10%Tween-80/80% 0.9% saline. All solutions for animal administration were prepared fresh daily.
Antinociception was calculated according to the following formula: % antinociception = 100 × (test latency − control latency)/(15 − control latency). Tail-withdrawal data points are the means of 8–16 mice, unless otherwise indicated, with SEM shown by error bars.
All dose–response lines were analyzed by regression, and ED50 (effective dose producing 50% antinociception) values and 95% confidence intervals (C.I.) were determined using individual data points from graded dose–response curves with Prism 8.0 software (GraphPad, La Jolla, CA, USA). Percent antinociception was used to determine within group effects and to allow comparison to baseline latency in tail-withdrawal experiments. The statistical significance of differences between ED50 values was determined by evaluation of the ED50 value shift via nonlinear regression modeling with Prism software. Significant differences in behavioral data were analyzed by ANOVA (one-way or two-way with repeated measures (RM), as appropriate). Significant results were further analyzed with Sidak’s, Tukey’s, or Dunnett’s multiple comparison post hoc tests, as appropriate. Data for conditioned place preference experiments were analyzed by two-way RM ANOVA, with analyses examining the main effect of the conditioned place preference phase (e.g., pre- or post-conditioning) and the interaction of drug pretreatment. Significant effects were further analyzed using Sidak’s HSD post hoc testing. All data are presented as mean ± SEM, with significance set at p < 0.05.

Structure (SMILES): Cc1cc(O)cc(C)c1C[C@H]1CN([C@@H](Cc2c(C)cc(O)cc2C)CN2C(=N)NC[C@@H]2C)C(=N)N1 [1968-22]
- antinociception after oral administration (in words) (10 mg/kg, p.o.): significant antinociception
- time of peak antinociception after i.c.v. administration (i.c.v.): 20 min
- ED50 (and 95% Confidence Interval (C.I.)) Values, i.c.v. (nmol) (i.c.v., antinociception at peak response, mice, * ED50 estimated where maximum antinociception not achieved): 0.011 (0.005–0.026) nmol
- duration of significant antinociception (i.c.v., maximum doses tested): 70 min
